ChEMBL document CHEMBL1201862, “PubChem BioAssay data set” (2004)
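These data come from cells grown in 96-well plates and exposed to compound for 48 hours at five concentrations. GI50 is the concentration that inhibits growth by half.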 Calls of active or inactive are those of the source. No stated cut-off is given here; in the data, active = GI50 up to about 1.1 µM and inactive = higher.

Tests used:
Assay in all cases: growth of human tumour cells (NCI), 48 h
[1] = test system: TK-10
[2] = test system: UACC-62
[3] = test system: A498
[4] = test system: SF-539
[5] = test system: SK-OV-3
[6] = test system: 786-0
[7] = test system: IGROV-1
[8] = test system: M14
[9] = test system: U-251
[10] = test system: SN12C
[11] = test system: SF-268
[12] = test system: HOP-62
[13] = test system: DU-145
[14] = test system: Hs-578T
[15] = test system: EKVX
[16] = test system: Malme-3M
[17] = test system: LOX IMVI
[18] = test system: HOP-92
[19] = test system: M19-MEL

Compound	GI50 [1]	GI50 [2]	GI50 [3]	GI50 [4]	GI50 [5]	GI50 [6]	GI50 [7]	GI50 [8]	GI50 [9]	GI50 [10]	GI50 [11]	GI50 [12]	GI50 [13]	GI50 [14]	GI50 [15]	GI50 [16]	GI50 [17]	GI50 [18]	GI50 [19]
C#CCn1c(=O)c(C)cn(/C(=C\C(=O)OCC)C(=O)OCC)c1=O	1.77 µM (inactive)	10.1 µM (inactive)	17.2 µM (inactive)	1.28 µM (inactive)	28.6 µM (inactive)	2.82 µM (inactive)	8.63 µM (inactive)	4.19 µM (inactive)	8.11 µM (inactive)	6.3 µM (inactive)	16.1 µM (inactive)	20.5 µM (inactive)	16.1 µM (inactive)	24.8 µM (inactive)	6.43 µM (inactive)	2.1 µM (inactive)	11.1 µM (inactive)	2.12 µM (inactive)	–
Cc1cc(C)n(-c2nc(-n3nc(C)cc3C)nc(-n3nc(C)cc3C)n2)n1	30.1 µM (inactive)	> 100 µM (inactive)	> 100 µM (inactive)	> 100 µM (inactive)	> 100 µM (inactive)	> 100 µM (inactive)	> 100 µM (inactive)	> 100 µM (inactive)	> 10 µM (inactive)	> 100 µM (inactive)	> 100 µM (inactive)	> 100 µM (inactive)	> 100 µM (inactive)	50.5 µM (inactive)	40.2 µM (inactive)	37.2 µM (inactive)	> 100 µM (inactive)	> 100 µM (inactive)	–
O=C1c2cccnc2C(=O)C2C3C=CC(C3)C12 (stereo not drawn)	18 µM (inactive)	3.37 µM (inactive)	21.2 µM (inactive)	2.4 µM (inactive)	18.3 µM (inactive)	11.1 µM (inactive)	10.6 µM (inactive)	13.3 µM (inactive)	4.23 µM (inactive)	12.8 µM (inactive)	10.2 µM (inactive)	6.68 µM (inactive)	6.92 µM (inactive)	9.66 µM (inactive)	13.4 µM (inactive)	15.1 µM (inactive)	3.66 µM (inactive)	12.9 µM (inactive)	–
CC(O)CNC1=CC(=O)C(=O)c2ccccc21 (stereo not drawn)	28.7 µM (inactive)	12.9 µM (inactive)	27.7 µM (inactive)	19.2 µM (inactive)	34.5 µM (inactive)	17.6 µM (inactive)	13.4 µM (inactive)	15.5 µM (inactive)	15.8 µM (inactive)	17.1 µM (inactive)	16 µM (inactive)	18.2 µM (inactive)	15.5 µM (inactive)	22.8 µM (inactive)	18.6 µM (inactive)	4.15 µM (inactive)	15.9 µM (inactive)	19.5 µM (inactive)	–
NNC(=O)Nc1nc2ccc(NN)cc2[nH]1	36 µM (inactive)	21.1 µM (inactive)	23.6 µM (inactive)	12.6 µM (inactive)	40.2 µM (inactive)	31.3 µM (inactive)	42 µM (inactive)	31.5 µM (inactive)	37 µM (inactive)	42.2 µM (inactive)	37.2 µM (inactive)	44.4 µM (inactive)	97.7 µM (inactive)	33.7 µM (inactive)	65.5 µM (inactive)	59.6 µM (inactive)	43.1 µM (inactive)	19.7 µM (inactive)	–
N#CC(NCc1cccc(CNC(C#N)c2ccccc2)c1)c1ccccc1 (stereo not drawn)	46.2 µM (inactive)	65.2 µM (inactive)	> 100 µM (inactive)	0.0261 µM (active)	> 100 µM (inactive)	35.6 µM (inactive)	18.1 µM (inactive)	26.1 µM (inactive)	31.1 µM (inactive)	77.8 µM (inactive)	52.1 µM (inactive)	> 100 µM (inactive)	> 100 µM (inactive)	32.8 µM (inactive)	60 µM (inactive)	26.9 µM (inactive)	15 µM (inactive)	34.3 µM (inactive)	–
ClCCN(CCCl)c1ccc(/C=N/Nc2ccnc3ccccc23)cc1	1.52 µM (inactive)	1.75 µM (inactive)	20.3 µM (inactive)	1.41 µM (inactive)	1.58 µM (inactive)	1.78 µM (inactive)	1.65 µM (inactive)	2.02 µM (inactive)	1.48 µM (inactive)	1.65 µM (inactive)	2.65 µM (inactive)	2.07 µM (inactive)	1.8 µM (inactive)	2.23 µM (inactive)	2.39 µM (inactive)	1.49 µM (inactive)	1.44 µM (inactive)	1.64 µM (inactive)	–
CN1CCC(n2[nH]c(-c3ccccc3)c(Cc3ccccc3)c2=O)CC1 [BENZPIPERYLON]	> 100 µM (inactive)	> 100 µM (inactive)	93.3 µM (inactive)	57.1 µM (inactive)	> 100 µM (inactive)	> 100 µM (inactive)	59.7 µM (inactive)	> 100 µM (inactive)	> 100 µM (inactive)	> 100 µM (inactive)	> 100 µM (inactive)	> 100 µM (inactive)	97.3 µM (inactive)	50.9 µM (inactive)	> 100 µM (inactive)	90.8 µM (inactive)	> 100 µM (inactive)	> 100 µM (inactive)	–
O=C(O)c1ccc(OCc2ccccc2)c(Cl)c1	> 100 µM (inactive)	> 100 µM (inactive)	> 100 µM (inactive)	> 100 µM (inactive)	> 100 µM (inactive)	> 100 µM (inactive)	> 100 µM (inactive)	> 100 µM (inactive)	> 100 µM (inactive)	> 100 µM (inactive)	> 100 µM (inactive)	> 100 µM (inactive)	> 100 µM (inactive)	> 100 µM (inactive)	> 100 µM (inactive)	> 100 µM (inactive)	> 100 µM (inactive)	> 100 µM (inactive)	–
O=C1CC(c2c[nH]c3ccccc23)C(=O)N1c1ccccc1 (stereo not drawn)	> 100 µM (inactive)	> 100 µM (inactive)	> 100 µM (inactive)	> 100 µM (inactive)	> 100 µM (inactive)	> 100 µM (inactive)	> 100 µM (inactive)	> 100 µM (inactive)	> 100 µM (inactive)	–	–	> 100 µM (inactive)	–	–	> 100 µM (inactive)	> 100 µM (inactive)	–	–	> 100 µM (inactive)
CO/N=C1\CC(C)N2C(=O)C(C(C)C)NC(=O)C(NC(=O)c3c4nc5c(C(=O)NC6C(=O)NC(C(C)C)C(=O)N7C(C)CC(O)C7C(=O)N(C)CC(=O)N(C)C(C(C)C)C(=O)OC6C)ccc(C)c5oc-4c(C)c(=O)c3N)C(CO)OC(=O)C(C)N(C)C(=O)CN(C)C(=O)C12 (stereo not drawn)	5.48 µM (inactive)	0.29 µM (active)	1.13 µM (inactive)	0.348 µM (active)	3.66 µM (inactive)	1.01 µM (active)	0.191 µM (active)	2.26 µM (inactive)	0.242 µM (active)	0.416 µM (active)	0.986 µM (active)	1.57 µM (inactive)	1.97 µM (inactive)	0.906 µM (active)	4 µM (inactive)	0.374 µM (active)	0.156 µM (active)	0.753 µM (active)	–
